This assay has as its system IL-1β secretion, THP-1 cells. In words: IL-1β secretion assay in PMA-differentiated THP-1 cells stimulated with LPS and nigericin (ELISA readout). The format is cell-based. The settings on record: 25 ng/mL LPS then nigericin. In short, it runs like this: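 THP-1 cells differentiated with 5 ng/mL PMA for 40 h, primed in serum-free medium with 25 ng/mL LPS for 2 h, then compound (0.5% DMSO) for 1 h before nigericin for 2 h at 37°C. Supernatant IL-1β quantified by ELISA; normalized to high (LPS + 5 µM nigericin) and low (LPS only) controls.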
Background: In an ELISA, binding on a coated surface is turned into a signal by an enzyme label.

The mark [1] stands for this setting: Homo sapiens, THP-1, inhibition of IL-1β secretion, class column of Table 3.
Setting [2] is: Homo sapiens, THP-1, inhibition of IL-1β secretion, numeric column of Table 3.

Counter-ions that a name gives are not always drawn.

On to `CC(C)c1nn(CC(=O)NCC2CCCCO2)c(=O)c2ccc(Br)cc12` (stereo not drawn) [Example 84, 2-(6-bromo-1-oxo-4-propan-2-ylphthalazin-2-yl)-N-(oxan-2-ylmethyl)acetamide], for which the IC50 (as a rule, the point on the concentration scale where inhibition reaches its midpoint) was less than 10 µM under setting [1] and 3.71 µM under setting [2].
The corresponding values for `O=C(Cn1nc(C(F)(F)F)c2cc(Br)ccc2c1=O)Nc1ncncc1F` [Example 131, 2-[6-bromo-1-oxo-4-(trifluoromethyl)phthalazin-2-yl]-N-(5-fluoropyrimidin-4-yl)acetamide] are less than 10 µM and 1.27 µM.
On to `CC(C)c1nn(CC(=O)Nc2ncncc2F)c(=O)c2ccc(OC(F)F)cc12` [Example 16, 2-[6-(difluoromethoxy)-1-oxo-4-propan-2-ylphthalazin-2-yl]-N-(5-fluoropyrimidin-4-yl)acetamide], for which the IC50 is, setting by setting: under setting [1], less than 10 µM; under setting [2], 0.787 µM.
With `CO[C@H]1C[C@H](NC(=O)Cn2nc(C(C)C)c3cc(Br)ccc3c2=O)C1` [Example 78, 2-(6-bromo-1-oxo-4-propan-2-ylphthalazin-2-yl)-N-(3-trans-methoxycyclobutyl)acet amide], the half-maximal inhibitory concentration (IC50) is, setting by setting: under setting [1], less than 10 µM; under setting [2], 1.51 µM.
With `CC(C)c1nn(CC(=O)NCC2CCOCC2)c(=O)c2ccc(Br)cc12` [Example 74, 2-(6-bromo-1-oxo-4-propan-2-ylphthalazin-2-yl)-N-(oxan-4-ylmethyl)acetamide], the concentration for half-maximal inhibition (IC50) under setting [1] is less than 10 µM and it took 3.74 µM to reach half-maximal inhibition under setting [2] (IC50).
For `O=C(Cn1nc(OC2CC2)c2cc(C3CC3)ccc2c1=O)Nc1ncc(F)cn1` [Example 173, 2-(6-cyclopropyl-4-cyclopropyloxy-1-oxophthalazin-2-yl)-N-(5-fluoropyrimidin-2-yl)acetamide], in that order: less than 10 µM and 0.12 µM.
Consider `CC(C)c1nn(CC(=O)Nc2ccc(C#N)cc2F)c(=O)c2ccc(Br)cc12` [Example 59, 2-(6-bromo-1-oxo-4-propan-2-ylphthalazin-2-yl)-N-(4-cyano-2-fluorophenyl)acetamide], for which the 50% inhibitory concentration (IC50) is less than 10 µM under setting [1] and 0.457 µM under setting [2].
The corresponding values for `CC(C)c1nn(CC(=O)N[C@@H]2CCCN(CC(F)(F)F)C2)c(=O)c2ccc(Br)cc12` [Example 7, (R)-2-(6-Bromo-4-isopropyl-1-oxophthalazin-2(1H)-yl)-N-(1-(2,2,2-trifluoroethyl)piperidin-3-yl)acetamide] are less than 10 µM and 1.03 µM.
As for `CC(C)c1nn(CC(=O)Nc2ncncc2F)c(=O)c2ccc(I)cc12` [Example 20, N-(5-fluoropyrimidin-4-yl)-2-(6-iodo-1-oxo-4-propan-2-ylphthalazin-2-yl)acetamide], the half-inhibitory concentration (IC50) reads like this: under setting [1], less than 10 µM; under setting [2], 0.018 µM.
On to `CC(C)c1nn(CC(=O)Nc2ccnc(C(F)(F)F)n2)c(=O)c2ccc(Br)cc12` [Example 34, 2-(6-bromo-1-oxo-4-propan-2-ylphthalazin-2-yl)-N-[2-(trifluoromethyl)pyrimidin-4-yl]acetamide], for which the IC50 reads like this: under setting [1], less than 10 µM; under setting [2], 1.89 µM.
As for `COc1nn(CC(=O)Nc2ncc(F)cn2)c(=O)c2ccc(Br)cc12` [Example 32, 2-(6-bromo-4-methoxy-1-oxophthalazin-2-yl)-N-(5-fluoropyrimidin-2-yl)acetamide], the IC50 was less than 10 µM under setting [1] and 0.128 µM under setting [2].
The corresponding values for `O=C(Cn1nc(C(F)F)c2cc(Br)ccc2c1=O)Nc1ncc(Cl)cc1F` [Example 134] are less than 10 µM and 1.21 µM.
With `CC(C)c1nn(CC(=O)Nc2ncc(F)cc2F)c(=O)c2ccc(Br)cc12` [Example 38, 2-(6-bromo-1-oxo-4-propan-2-ylphthalazin-2-yl)-N-(3,5-difluoropyridin-2-yl)acetamide], the IC50 was less than 10 µM under setting [1] and 0.913 µM under setting [2].
For `CC(C)c1nn(CC(=O)Nc2ncccc2F)c(=O)c2ccc(Br)cc12` [Example 35, 2-(6-bromo-1-oxo-4-propan-2-ylphthalazin-2-yl)-N-(3-fluoropyridin-2-yl)acetamide], in that order: less than 10 µM and 0.529 µM.
The corresponding values for `CC(C)c1nn(C(C)C(=O)Nc2ncncc2F)c(=O)c2ccc(Br)cc12` (stereo not drawn) [Example 14, 2-(6-bromo-1-oxo-4-propan-2-ylphthalazin-2-yl)-N-(5-fluoropyrimidin-4-yl)propanamide] are less than 10 µM and 3.66 µM.
With `O=C(Cn1nc(OC2CC2)c2cc(C(F)(F)F)ccc2c1=O)Nc1ncc(F)cn1` [Example 174, 2-(4-cyclopropoxy-1-oxo-6-(trifluoromethyl)phthalazin-2(1H)-yl)-N-(5-fluoropyrimidin-2-yl)acetamide], the IC50 is less than 10 µM under setting [1] and 0.515 µM under setting [2].
With `CC(C)c1nn(CC(=O)NCc2ccnn2C)c(=O)c2ccc(Br)cc12` [Example 128, 2-(6-bromo-1-oxo-4-propan-2-ylphthalazin-2-yl)-N-[(2-methylpyrazol-3-yl)methyl]acetamide], the IC50 was less than 10 µM under setting [1] and 5.26 µM under setting [2].
For `CC(C)c1nn(CC(=O)Nc2nccc(C(F)(F)F)n2)c(=O)c2ccc(Br)cc12` [Example 110, 2-(6-bromo-1-oxo-4-propan-2-ylphthalazin-2-yl)-N-[4-(trifluoromethyl)pyrimidin-2-yl]acetamide], in that order: less than 10 µM and 1.35 µM.
For `O=C(Cn1nc(OCF)c2cc(Br)ccc2c1=O)Nc1ncc(F)cn1` [Example 137, 2-[6-bromo-1-oxo-4-(fluoromethoxy)phthalazin-2-yl]-N-(5-fluoropyrimidin-2-yl)acetamide], in that order: less than 10 µM and 0.186 µM.
For `CC(c1nn(CC(=O)Nc2ncncc2F)c(=O)c2ccc(Br)cc12)C(F)(F)F` (stereo not drawn) [Example 17, 2-[6-bromo-1-oxo-4-(1,1,1-trifluoropropan-2-yl)phthalazin-2-yl]-N-(5-fluoropyrimidin-4-yl)acetamide], in that order: less than 10 µM and 0.876 µM.
Regarding `O=C(Cn1nc([C@H]2C[C@H]2F)c2cc(Br)ccc2c1=O)Nc1ncc(F)cn1` (single isomer, unassigned) [Example 166, 2-[6-bromo-4-[2-cis-fluorocyclopropyl]-1-oxophthalazin-2-yl]-N-(5-fluoropyrimidin-2-yl)acetamide], the IC50 is, setting by setting: (inhibition of IL-1β secretion, class column of Table 3) less than 10 µM; (inhibition of IL-1β secretion, numeric column of Table 3) 0.237 µM.
Consider `O=C(Cn1nc(OC(F)(F)F)c2ccc(Br)cc2c1=O)Nc1ncncc1F` [Example 83, 2-[7-Bromo-1-Oxo-4-(Trifluoromethoxy)Phthalazin-2-yl]-N-(5-Fluoropyrimidin-4-yl)Acetamide], for which the IC50 is, setting by setting: under setting [1], greater than 15 µM; under setting [2], greater than 50 µM.
The corresponding values for `O=C(Cn1nc(C(F)F)c2c(F)c(Br)ccc2c1=O)Nc1ncccn1` [Example 27, 2-[6-bromo-4-(difluoromethyl)-5-fluoro-1-oxophthalazin-2-yl]-N-pyrimidin-2-ylacetamide] are less than 10 µM and 0.137 µM.
Turning to `CC(C)c1nn(CC(=O)NC2CNCC(F)(F)C2)c(=O)c2ccc(Br)cc12` (stereo not drawn) [Example 11, 2-(6-bromo-4-isopropyl-1-oxophthalazin-2(lH)-yl)-N-(5,5-difluoropiperidin-3-yl)acetamide HCl salt], the IC50 reads like this: under setting [1], less than 10 µM; under setting [2], 3.15 µM.
The corresponding values for `O=C(Cn1nc(C(F)F)c2cc(Br)ccc2c1=S)Nc1ncc(F)cn1` [Example 179, 2-[6-bromo-4-(difluoromethyl)-1-thioxophthalazin-2-yl]-N-(5-fluoropyrimidin-2-yl)acetamide] are less than 10 µM and 0.486 µM.
The corresponding values for `O=C(Cn1nc(C(F)F)c2ccc(Br)cc2c1=O)Nc1ncccn1` [Example 94, 2-[7-bromo-4-(difluoromethyl)-1-oxo-phthalazin-2-yl]-N-pyrimidin-2-yl-acetamide] are less than 10 µM and 6.05 µM.
Regarding `CC(C)c1nn(CC(=O)NC2CCc3nncn3C2)c(=O)c2ccc(Br)cc12` (stereo not drawn) [Example 47, 2-(6-bromo-1-oxo-4-propan-2-ylphthalazin-2-yl)-N-(5,6,7,8-tetrahydro-[1,2,4]triazolo[4,3-a]pyridin-6-yl)acetamide], the 50% inhibitory concentration (IC50) is less than 10 µM under setting [1] and 2.55 µM under setting [2].
Turning to `Cc1cnc(NC(=O)Cn2nc(OC3CC3)c3cc(Br)ccc3c2=O)nc1` [Example 152], the IC50 by setting is: under setting [1], less than 10 µM; under setting [2], 0.173 µM.
`CC(F)c1nn(CC(=O)Nc2ncccn2)c(=O)c2cc(Br)ccc12` (stereo not drawn) [Example 81, 2-[7-bromo-4-(1-fluoroethyl)-1-oxo-phthalazin-2-yl]-N-pyrimidin-2-yl-acetamide]: the IC50 is, setting by setting: under setting [1], greater than 15 µM; under setting [2], 32 µM.
For `O=C(Cn1nc(C(F)F)c2cc(Br)ccc2c1=O)Nc1ncccn1` [Example 93, 2-[6-bromo-4-(difluoromethyl)-1-oxo-phthalazin-2-yl]-N-pyrimidin-2-yl-acetamide], in that order: less than 10 µM and 0.14 µM.
The compound `O=C(Cn1nc(OC(F)(F)F)c2cc(Br)ccc2c1=O)Nc1ncncc1F` [Example 82] showed an IC50 under setting [1] of less than 10 µM and an IC50 under setting [2] of 1.48 µM.
The corresponding values for `CC(C)c1nn(CC(=O)NC2CCC2)c(=O)c2ccc(Br)cc12` [Example 126, 2-(6-bromo-1-oxo-4-propan-2-ylphthalazin-2-yl)-N-cyclobutylacetamide] are less than 10 µM and 1.78 µM.
Regarding `N#C[C@H]1C[C@@H](Oc2nn(CC(=O)Nc3ncc(F)cn3)c(=O)c3ccc(Br)cc23)C1` [Example 171, 2-[6-bromo-4-(3-cis-cyanocyclobutyl)oxy-1-oxophthalazin-2-yl]-N-(5-fluoropyrimidin-2-yl)acetamide], the IC50 by setting is: under setting [1], less than 10 µM; under setting [2], 5.85 µM.

These data come from patent US20230357162A1, “COMPOUNDS, COMPOSITIONS AND METHODS” (Denali Therapeutics Inc., priority 2020, published 2023).
